# Data reported in ChEMBL document CHEMBL1150573, “Three new triterpenes from the seeds of Combretum quadrangulare and their hepatoprotective activity” (J Nat Prod, 2001).
# Active and inactive are the calls of the source. No cut-off for these calls is given here.
# Legend:
# [1] = system: Hepatocyte; test: Hepatoprotective activity against D-galactosamine/TNFalpha-induced cell death in primary cultured mouse hepatocytes at 50 uM treated for 30 mins before TNFalpha challenge measured after 18 hrs by MTT assay relative to control; type: functional
# [2] = system: Hepatocyte; test: Hepatoprotective activity against D-galactosamine/TNFalpha-induced cell death in primary cultured mouse hepatocytes treated for 30 mins before TNFalpha challenge measured after 18 hrs by MTT assay; type: functional, cell-based
# [3] = system: Hepatocyte; test: Hepatoprotective activity against D-galactosamine/TNFalpha-induced cell death in primary cultured mouse hepatocytes assessed as cell viability at 50 uM treated for 30 mins before TNFalpha challenge measured after 18 hrs by MTT assay relative to normal hepatocytes; type: functional; conditions: read-out: Activity
# [4] = system: Hepatocyte; test: Hepatoprotective activity against D-galactosamine/TNFalpha-induced cell death in primary cultured mouse hepatocytes assessed as cell viability at 100 uM treated for 30 mins before TNFalpha challenge measured after 18 hrs by MTT assay relative to normal hepatocytes; type: functional; conditions: read-out: Activity
# [5] = system: Hepatocyte; test: Hepatoprotective activity against D-galactosamine/TNFalpha-induced cell death in primary cultured mouse hepatocytes assessed as cell viability at 25 uM treated for 30 mins before TNFalpha challenge measured after 18 hrs by MTT assay relative to normal hepatocytes; type: functional; conditions: read-out: Activity
# [6] = system: Hepatocyte; test: Hepatoprotective activity against D-galactosamine/TNFalpha-induced cell death in primary cultured mouse hepatocytes at 100 uM treated for 30 mins before TNFalpha challenge measured after 18 hrs by MTT assay relative to control; type: functional
# [7] = system: Hepatocyte; test: Hepatoprotective activity against D-galactosamine/TNFalpha-induced cell death in primary cultured mouse hepatocytes at 25 uM treated for 30 mins before TNFalpha challenge measured after 18 hrs by MTT assay relative to control; type: functional
SMILES,inhibition at 50 µM [1] [%],IC50 [2] [µM],viability at 50 µM [3] [%],viability at 100 µM [4] [%],viability at 25 µM [5] [%],inhibition at 100 µM [6] [%],inhibition at 25 µM [7] [%],Activity [2]
C=C(C)[C@@H]1CC[C@]2(C(=O)O)CC[C@]3(C)[C@H](CC[C@@H]4[C@@]5(C)C[C@@H](O)[C@H](O)C(C)(C)[C@@H]5[C@H](O)C[C@]43C)[C@@H]12,35.8,60.9,28.4,47.6,22.2,128,5.9,–
C=C(C)[C@@H]1CC[C@]2(C(=O)O[C@@H]3O[C@H](CO)[C@@H](O)[C@H](O)[C@H]3O)CC[C@]3(C)[C@H](CC[C@@H]4[C@@]5(C)C[C@@H](O)[C@H](O)C(C)(C)[C@@H]5[C@H](O)C[C@]43C)[C@@H]12,–,–,–,–,–,–,–,Active
C[C@@H]1CC[C@]2(C(=O)O[C@@H]3O[C@H](CO)[C@@H](O)[C@H](O)[C@H]3O)CC[C@]3(C)C(=CC[C@@H]4[C@@]5(C)C[C@@H](O)[C@H](O)[C@@](C)(CO)[C@@H]5CC[C@]43C)[C@@H]2[C@]1(C)O,–,–,–,–,–,–,–,inactive
C=C(C)[C@@H]1CC[C@]2(C(=O)O)CC[C@]3(C)[C@H](CC[C@@H]4[C@@]5(C)C[C@@H](O)[C@H](O)[C@@](C)(CO)[C@@H]5[C@H](O)C[C@]43C)[C@@H]12,46.2,51.2,30.6,36,28.6,71.7,36.4,–
CC1(C)CC[C@]2(C(=O)O)CC[C@]3(C)C(=CC[C@@H]4[C@@]5(C)C[C@@H](O)[C@H](O)C(C)(C)[C@@H]5[C@H](O)C[C@]43C)[C@@H]2[C@@H]1O,18,–,24.7,26.1,24.2,24.4,15.4,–
CC1=C2C3=CC[C@@H]4[C@@]5(C)C[C@@H](O)[C@H](O)[C@@](C)(CO)[C@@H]5[C@H](O)C[C@@]4(C)[C@]3(C)CC[C@@]2(C(=O)O[C@@H]2O[C@H](CO)[C@@H](O)[C@H](O)[C@H]2O)CC[C@H]1C,–,–,–,–,–,–,–,Active
CC1(C)[C@@H](O[C@H]2O[C@H](C(=O)O)[C@@H](O)[C@H](O)[C@H]2O[C@@H]2O[C@H](C(=O)O)[C@@H](O)[C@H](O)[C@H]2O)CC[C@]2(C)[C@H]3C(=O)C=C4[C@@H]5C[C@@](C)(C(=O)O)CC[C@]5(C)CC[C@@]4(C)[C@]3(C)CC[C@@H]12 [GLYCYRRHIZIN],–,> 200,–,–,–,–,–,–
CC1(C)CC[C@]2(C(=O)O)CC[C@]3(C)C(=CC[C@@H]4[C@@]5(C)C[C@@H](O)[C@H](O)C(C)(C)[C@@H]5CC[C@]43C)[C@@H]2[C@@H]1O [ARJUNIC ACID],27,–,26.6,27.8,26.5,32.9,26.7,–
CC1=C2C3=CC[C@@H]4[C@@]5(C)C[C@@H](O)[C@H](O)[C@@](C)(CO)[C@@H]5CC[C@@]4(C)[C@]3(C)CC[C@@]2(C(=O)O)CC[C@H]1C,47.4,51,30.8,51.5,29.4,150,40.6,–
C[C@H]1[C@H](C)CC[C@]2(C(=O)O[C@@H]3O[C@H](CO)[C@@H](O)[C@H](O)[C@H]3O)CC[C@]3(C)C(=CC[C@@H]4[C@@]5(C)C[C@@H](O)[C@H](O)[C@@](C)(CO)[C@@H]5CC[C@]43C)[C@H]12,–,–,–,–,–,–,–,inactive
CC[C@H](CC[C@@H](C)[C@H]1CC[C@H]2[C@@H]3CC=C4C[C@@H](O)CC[C@]4(C)[C@H]3CC[C@]12C)C(C)C [BETA-SITOSTEROL],28.1,–,26.4,27.3,24.3,32.5,17.7,–
CC1(C)CC[C@]2(C(=O)O)CC[C@]3(C)C(=CC[C@@H]4[C@@]5(C)C[C@@H](O)[C@H](O)[C@@](C)(CO)[C@@H]5CC[C@]43C)[C@@H]2C1 [ARJUNOLIC ACID],33.8,58.4,28,43.6,24.9,108,19.1,–
C=C(C)[C@@H]1CC[C@]2(C(=O)O[C@@H]3O[C@H](CO)[C@@H](O)[C@H](O)[C@H]3O)CC[C@]3(C)[C@H](CC[C@@H]4[C@@]5(C)C[C@@H](O)[C@H](O)[C@@](C)(CO)[C@@H]5[C@H](O)C[C@]43C)[C@@H]12,–,–,–,–,–,–,–,Active
COc1cc(C2Oc3cc([C@H]4Oc5cc(O)cc(O)c5C(=O)[C@@H]4O)ccc3OC2CO)ccc1O (stereo not given in full) [SILIBININ],68.2,29.9,35.1,47.9,30.2,129,44.9,–
C[C@@H]1CC[C@]2(C(=O)O)CC[C@]3(C)C(=CC[C@@H]4[C@@]5(C)C[C@@H](O)[C@H](O)[C@@](C)(CO)[C@@H]5CC[C@]43C)[C@@H]2[C@]1(C)O,–,–,–,–,–,–,–,inactive
